Experimental data from patent publication US20220274935A1, “PHARMACEUTICAL COMPOSITION FOR PREVENTING OR TREATING BONE DISEASES” (INDUSTRY FOUNDATION OF CHONNAM NATIONAL UNIVERSITY, priority 2019, published 2022).

Legend:
[1] = tested on: preosteoclasts; assay: MTT assay for cytotoxicity assessment (cell viability); type: cell-based, mouse; details: MCSF 30 ng/mL, concentration of 10 uM
Method: MTT Assay for Cytotoxicity Assessment
After treatment of preosteoclasts with 35D35 or 35D3 (=PPOA) (1-10 uM), cell viability was evaluated. Specifically, 1×10^4 cells per well were put into a 96-well plate, and only MCSF (30 ng/mL) and PPOA were cultured by day under the indicated concentration conditions. Thereafter, a cell viability assay reagent (DoGen, EZ-3000) was used with 1/10 of the volume of the medium for treatment, and then the cells were incubated at 37° C. for 30 minutes and observed at […]. […] That is, it was confirmed that there was no cytotoxicity.

[2] = tested on: osteoclast differentiation of monocytes isolated from the mouse bone marrow; assay: Osteoclast differentiation inhibitory ability through TRAP staining and assay (RANKL-induced monocytes); type: cell-based; details: for degree of osteoclast differentiation by TRAP staining: treated together with RANKL, compared to other derivatives, FIG. 1
Method: The bone marrow of a 10-week-old female mouse was isolated from the hip bone, femur and tibia, followed by culturing the same in α-MEM medium (Gibco, 12561-056, 10% fetal bovine serum, 1% penicillin/streptomycin) containing macrophage colony stimulating factor (M-CSF, PeproTech, 315-02, 30 ng/ml) for 3 days in order to isolate only monocytes. The isolated monocytes were treated with receptor activator of nuclear factor kappa B ligand (RANKL, PeproTech, 315-11, 50 ng/ml) to induce osteoclast differentiation. During RANKL treatment, each compound (35D35, 35D5, 35D3, and 35D8) was used for treatment and the cells were cultured for 3 or 5 days so as to confirm the degree of osteoclast differentiation.
1×10^4 monocytes isolated from the mouse bone marrow were put into a 96-well plate and treated with each compound (35D35, 35D5, 35D3, and 35D8) together with RANKL, thereby confirming the effects of each compound on osteoclast differentiation ability. Using the TRAP activity assay kit (Cosmo Bio, PMC-AK04F-COS), the activity of tartrate-resistant acid phosphatase (TRAP) with increased expression during osteoclast differentiation was confirmed. […] After staining, multinuclear cells formed during osteoclast differentiation were confirmed under a microscope. Further, each well was photographed and a differentiation area ratio per total area was determined using Image J software.
Further, the effects of the 35D35 compound having excellent osteoclast production inhibitory ability with respect to osteoclast differentiation period was investigated. Specifically, BMM was divided into 5 groups (Ctrl, Period I to IV), and cultured for 4 days in a culture medium containing 30 ng/mL M-CSF and 50 ng/mL RANKL. BMMs in Period I to IV groups were exposed to 1 μM 35D35 for 24 hours on different days, respectively. After 4 days, the cells of each group were fixed, followed by TRAP staining, and then, the presence of osteoclasts was confirmed.

[3] = tested on: RANKL-induced F-actin belt formation in BMM; assay: F-actin ring (belt) formation ability of differentiated osteoclasts; type: cell-based, mouse; details: for inhibition of RANKL-induced F-actin belt formation: FIG. 5
Method: In order to confirm the activity of differentiated osteoclasts, F-actin ring formation ability was measured. Specifically, BMM was seeded on a 12 mm cover glass with or without compounds (35D3: 6 μM, 35D5 and 35D35: 2 μM), followed by M-CSF and LANKL treatment. After the osteoclasts were formed in the control, the osteoclasts were fixed in 4.0% paraformaldehyde for 15 minutes, and then incubated in 5% FBS and blocked for about 60 minutes. After washing with PBS, rhodamine-conjugated phalloidin (1:40) was added to each well to visualize a F-actin belt. After 20 minutes, the cells were incubated along with a DAPI (1:5000) solution for 5 minutes. After washing three times with PBS, cells were observed using a fluorescence microscope.
A F-actin size was measured using Image J.

[4] = tested on: bone resorption ability of osteoclasts (BMM); assay: Bone resorption assay kit (fluoresceinamine-labeled calcium phosphate plate); type: cell-based, mouse; details: 0.5 uM, 6 days, compared to control cells not treated (Ctrl); FIG. 7
Method: In addition, the bone resorption ability of 35D35 was measured using a bone resorption assay kit (Cosmo Bio, CSR-BRA). Specifically, BMM was seeded on a fluoresceinamine-labeled calcium phosphate plate, followed by 35D35 treatment with various doses. After 6 days, a fluorescence intensity was measured at absorption and emission wavelengths of 485 nm and 535 nm, respectively, using a fluorescent reader. Further, a resorption pit area was calculated using Image J. As a result, it was confirmed that the bone resorption ability was reduced by about 10% in the cells treated with 0.5 uM of 35D35, as compared to the control cells not treated with the compound (Ctrl) (see FIG. 7, scale bar=200 μm, “Con”=M-CSF+RANKL treatment group, “M”=M-CSF treatment group).

[5] = tested on: osteoclast-specific genes AcP5 (TRAP), NFATc1, DC-STAMP, ATP6v0d2, MMP9 and CTSK; assay: RT-PCR of osteoclast-specific gene mRNA expression; type: cell-based, mouse; details: 1 μM, compared to the control not treated (Ctrl); FIG. 8
Method: (§1) In order to confirm the expression degree of the osteoclast-specific gene, an mRNA expression level was measured by RT-PCR in cells treated with 35D35 (1 μM) and 35D3 (6 μM) compounds, respectively. RNA was isolated from cells differentiated into osteoclasts using an RNA extraction kit, and cDNA was synthesized from 0.5 μg of RNA, which was quantified through a spectrophotometer, using a reverse transcriptase (Takara, RR037 A). Thereafter, QRT-PCR was performed using cDNA synthesized by QuantStudio 3 real-time PCR system (Applied Biosystems). After treating the cells with lysates, immunoblotting was conducted with an anti-Ctsk antibody. At this time, β-actin was used as a loading control.

[6] = tested on: Ctsk protein expression in osteoclasts; assay: Immunoblotting with anti-Ctsk antibody; type: cell-based, mouse; details: 35D35 1 μM compared to 35D3 6 μM; FIG. 9
Method: as §1

[7] = tested on: hBMP2-induced osteoblast differentiation of precursor cells from mouse skull; assay: ALP staining for analysis of osteoblast differentiation ability; type: cell-based, C57BL/6J mouse; details: hBMP2 100 ng/ml, 7 days; FIG. 10
Method: After collecting cells from C57BL/6J mouse calvara at the age of 3 days, the cells were seeded on a 96-well plate in an amount of 4×10^3 cells per well, and then treated with 100 ng/ml of hBMP2 as a differentiation inducer. Simultaneously with the differentiation inducer treatment, the cells were treated with the 35D35 compound and cultured for 7 days, followed by ALP staining to assess differentiation influence. Specific experimental methods and results are as follows.
Precursor cells isolated from the mouse skull were treated with hBMP2 (Bone morphogenic protein 2, Sino biological, 10426-HNAE, 100 ng/ml) to induce differentiation into osteoblasts. Differentiated osteoblasts could be discriminated through alkaline phosphatase (ALP) staining as an osteoblast-specific protein. When the progenitor cells were treated with hBMP2, each of the 35D35 compounds was also used for treatment, followed by culturing the cells for 7 days while changing the medium every 2 to 3 days. […]
After discarding the ethanol, the remaining product was washed with HBSS, followed by adding a NBT solution (Sigma, B1911) in an amount of 100 μl per well and staining for 15 minutes. […] After ALP staining, a degree of color development was measured using Image J software, and then graphed for comparison.

[8] = tested on: ovariectomized mouse model (OVX); assay: Ovariectomized (OVX) mouse osteoporosis model, tibia micro-computed tomography; type: in vivo; details: OVX mice, intraperitoneal once every two days, after 4 weeks, microcomputer tomography; FIGS. 11 to 14
Method: An ovariectomized mouse model (OVX, ovariectomized mouse) with osteoporosis due to estrogen deficiency after ovariectomy in 8-week-old female mouse were prepared. Compounds (35D35, 35D5, and 35D3), respectively, were injected intraperitoneally once every two days to the ovariectomized mouse model. After 4 weeks, the tibia of each mouse was analyzed for bone density by microcomputer tomography.
FIGS. 11 to 14 show the micro-computed tomography results (Sham: the control in which the ovaries were not removed) and graphs for analysis of the micro-computed tomography results with regard to the tibia of the mouse models (*P<0.05, **P<0.01, and ***P<0.001 vs. the control, OVX. BMD: trabecular bone mineral density).

[9] = tested on: osteoclast differentiation of monocytes isolated from the mouse bone marrow; assay: Osteoclast differentiation inhibitory ability of 35D3 (PPOA) through TRAP staining and analysis; type: cell-based; details: 3 μM, compared to group in which osteoclasts were differentiated normally
Method: The bone marrow of a 12-week-old female mouse was isolated from the hip bone, femur and tibia, followed by culturing the same in α-MEM medium (Gibco, 12561-056, 10% fetal bovine serum, 1% penicillin/streptomycin) containing macrophage colony stimulating factor (M-CSF, PeproTech, cat #315-02, 30 ng/ml) for 3 days in order to isolate only monocytes. The isolated monocytes were treated with RANKL (PeproTech, cat #315-11, 50 ng/ml) to induce osteoclast differentiation. Then, 35D3 (PPOA) was also used for treatment, followed by culturing the cells for 3 days or 5 days.
1×10^4 monocytes isolated from the mouse bone marrow were put into a 96-well plate and treated with RANKL to confirm the effect of 35D3 (PPOA) (3 μM) on osteoclast differentiation ability.
The activity of tartrate-resistant acid phosphatase (TRAP), which has increased expression during osteoclast differentiation, was confirmed using a TRAP activity assay kit (Sigma-Aldrich, 387A-1kt), which is shown in FIG. 16.
After staining, the multinuclear cells formed during osteoclast differentiation were observed under a microscope, and 12 images per well were photographed and combined into one well image, and a differentiation area ratio per total area was confirmed using Image J software. The differentiation area ratio per total area is shown in A of FIG. 17, and the area of TRAP-positive cells (nuclear number >3) was compared with DMSO (100%) and presented as a relative value.
Further, the number of differentiated osteoclasts was counted and determined, and this was shown in B of FIG. 17, and cells in which the number of cell nuclei contained in the differentiated osteoclasts is in the range of 3-5, 6-10, 11-20, and 21 or more, were classified and shown in C of FIG. 17.

[10] = tested on: F-actin formation in mouse bone marrow cells; assay: F-actin staining for differentiation into multinuclear cells, 35D3 (PPOA); type: cell-based; details: 6 uM, cultured 4 to 5 days; FIG. 18
Method: In order to determine the activity of differentiated osteoclasts, an ability of differentiating into multinuclear cells was measured through F-actin staining. 5×10^4 mouse bone marrow cells per well was put into a 24-well plate in which glass coated with L-Lysine was placed (Corning, 354085). At the same time, the cells were treated with 6 uM of 35D3 (PPOA) and then cultured for 4 to 5 days. The differentiated cells were fixed with 4% formaldehyde for 10 minutes and washed with PBS. For an antigen-antibody reaction, the cells were subjected to a reaction in 0.1% Triton-PBS for 20 minutes, followed by a reaction with 1% BSA for 1 hour. The F-actin antibody (Thermo Fisher Scientific, A12379) was reacted for 1 hour and then washed. Cell nuclei were stained through DAPI (4′,6-Diamidino-2-Phenylindole, Dilactate, Thermo Fisher Scientific, D3571) staining, and then, photographed under a microscope. As a result, it was confirmed that the size of F-actin was different depending on the presence or absence of 35D3 (PPOA) treatment (see FIG. 18).

[11] = tested on: bone resorption ability of osteoclasts (mouse bone marrow cells); assay: Bone resorption assay kit, 35D3 (PPOA); type: cell-based; details: exposure to 3, 6, and 10 μM; FIG. 19
Method: Further, the bone resorption ability was confirmed using a bone resorption assay kit (Cosmo Bio, CSR-BRA). Mouse bone marrow cells were seeded on a bone resorption assay plate 48 (2×10^4 cells/well) containing 30 ng/Ml of M-CSF. […] The next day, the culture supernatant from the cells was collected on a 96-well black polypropylene micro-well plate (Thermo Fisher Scientific Nunc, Waltham, Md., USA). After mixing 50 μL of 0.1 N of NaOH, fluorescence intensity was measured with a fluorescence plate reader (Molecular Devices, San Jose, Calif., USA-model: SpectraMax i3x); and the excitation and emission wavelengths were […] and 535 nm, respectively. The absorption area was calculated in consideration of 10 randomly selected pictures per well taken at 10 magnification using Image J software (https://imagej.nih.gov/ij).

Row | SMILES | cytotoxicity (cell viability, apoptosis effects) [1] | osteoclast differentiation by exposure period (TRAP staining) ([2]; 1 μM for 24 hours on different days, 4 days culture with M-CSF and RANKL, exposure in initial 24 hours, FIG. 4) | osteoclast differentiation area ratio per total area (TRAP staining, Image J) ([2]; concentration of 0.5 uM, FIG. 2) | degree of osteoclast differentiation by TRAP staining [2] | decrease of F-actin ring formation ability ([3]; 0.5 uM, F-actin size by Image J, FIG. 6) [%] | inhibition of RANKL-induced F-actin belt formation ([3]; 2 μM) | reduction of bone resorption ability [4] | amount of mRNA expression of osteoclast-specific genes AcP5 (TRAP), NFATc1, DC-STAMP, ATP6v0d2, MMP9 and CTSK [5] | Ctsk protein expression [6] | effect on osteoblast differentiation (ALP staining intensity) [7] | bone density of tibia vs control (OVX) [8] | bone volume of tibia vs control (OVX) [8] | inhibition of RANKL-induced F-actin belt formation ([3]; 6 μM) | giant multinuclear cells ([9]; FIG. 17) | number of osteoclasts ([9]; FIG. 17) | differentiation area (TRAP-positive cells per total area) ([9]; FIGS. 16 and 17) | differentiation into multinuclear cells (size of F-actin) [10] | proportion of bone resorption area [11]
1 | CCC(=O)N1CCN(c2ccccc2NC(=O)COc2ccccc2Cl)CC1 [35D35, 2-(2-chlorophenoxy)-N-[2-(4-propionyl-1-piperazinyl)phenyl]acetamide] | apoptosis effects were not exhibited | osteoclast differentiation was inhibited for the initial 24 hours | effective osteoclast differentiation inhibitory ability | superior osteoclast differentiation inhibitory effects compared to other derivatives | ≥ 50 | excellent effects of inhibiting RANKL-induced F-actin belt formation | about 10% | decreased | strongly inhibited even at a low concentration | did not affect osteoblasts | higher | higher | – | – | – | – | – | –
2 | CC(=O)N1CCN(c2ccccc2NC(=O)COc2ccccc2Cl)CC1 [35D3, N-(2-(4-acetylpiperazin-1-yl)phenyl)-2-(2-chlorophenoxy)acetamide] | apoptosis effects were not exhibited | – | – | superior osteoclast differentiation inhibitory effects compared to other derivatives | – | – | – | – | – | – | did not exhibit higher | did not exhibit higher | excellent effects of inhibiting RANKL-induced F-actin belt formation | significantly reduced | significantly reduced | significantly reduced | could inhibit differentiation into multinuclear cells | significant decrease
